Test results as given in patent publication US7119105B2, “Methods for treating neurodegenerative disorders using aspartyl protease inhibitors” (The Regents of the University of California, priority 1997, dated 2006).
Where two headings read alike, the source gives them in different places.

Columns and labels:
human liver cathepsin D = biological target: T1, human liver cathepsin D (Homo sapiens, UniProt P07339); assay: High-throughput fluorometric cathepsin D assay (library screen); assay type: biochemical; settings: for inhibition at 0.1 µM: 100 nM inhibitor; for inhibition at 0.33 µM: read-out: Inhibition of Cathepsin D in Library Screen
T1 construct: human liver cathepsin D (Calbiochem); purchased Calbiochem; host or cells: human liver
Text: Compounds capable of inhibiting cathepsin D can readily be identified using the assays described herein which measure a change in the hydrolysis of a peptide substrate. More particularly, a fluorometric high through-put assay for activity toward human liver cathepsin D (Calbiochem) can be used to screen the compounds of the present invention for their ability to inhibit cathepsin D. This assay was previously described by G. A. Kraft, et al., Methods Enzymol. 241, 70-86 (1994), the teachings of which are incorporated herein by reference. […] T. Baldwin, et al., Proc. Natl. Acad. Sci., U.S.A. 90, 6796-6800 (1993)). Generally, the reactants are mixed, the reaction is allowed to proceed for a specific period of time and the fluorescence of the reaction products is monitored to determine the extent to which the peptide substrate has been cleaved. […] 241, 70-86 (1994). As such, following the methods of the present invention, compounds can be readily synthesized and screened to identify compounds that inhibit cathepsin D. Briefly, a fluorometric high through-put assay for activity toward human liver cathepsin D (Calbiochem) was performed in 96-well microtiter plates (G. A. Krafft, et al., Methods Enymol. 241, 70-86 (1994)). […] T. Baldwin, et al., Proc. Natl. Acad. Sci., U.S.A. 90, 6796-6800 (1993)). The assay was performed in […] Microfluor fluorescence microtiter plates, and readings were taken on a Perkin-Elmer LS-50B with an attached 96-well plate reader. The excitation wavelength was 340 nm. A 340 nm interference filter (Hoya, U-340) for excitation and a 430 nm cut-off filter for emission were used. […] The fluorescent unit readings were taken at three time points within the linear region of the substrate cleavage, and percent activity of the enzyme was determined by comparing the change of fluorescent units (FU) for each well to the average change in FU for six control wells without inhibitor.

cathepsin D = cathepsin D (Homo sapiens, UniProt P07339); assay: Cathepsin D cuvette assay for IC50 and inhibition constants (Ki); assay type: biochemical
Text: Compounds capable of inhibiting cathepsin D can readily be identified using the assays described herein which measure a change in the hydrolysis of a peptide substrate. More particularly, a fluorometric high through-put assay for activity toward human liver cathepsin D (Calbiochem) can be used to screen the compounds of the present invention for their ability to inhibit cathepsin D. This assay was previously described by G. A. Kraft, et al., Methods Enzymol. 241, 70-86 (1994), the teachings of which are incorporated herein by reference. […] T. Baldwin, et al., Proc. Natl. Acad. […] Generally, the reactants are mixed, the reaction is allowed to proceed for a specific period of time and the fluorescence of the reaction products is monitored to determine the extent to which the peptide substrate has been cleaved. […] 241, 70-86 (1994). As such, following the methods of the present invention, compounds can be readily synthesized and screened to identify compounds that inhibit cathepsin D. [table]

[1] = crude compound, approximate concentration
[2] = 330 nM inhibitor, crude compound, approximate concentration
[3] = Table IV, substrate 2.5 μM, cathepsin D 10 nM, Ki ≈ IC50 − Et/2
[4] = Table V second generation, conditions as Table IV
[5] = Table V second generation, conditions as Table IV, Ki ≈ IC50 − Et/2
[6] = Table VI, P1-varied 204 compound library, purified

Chain of cathepsin D (P07339 65-412): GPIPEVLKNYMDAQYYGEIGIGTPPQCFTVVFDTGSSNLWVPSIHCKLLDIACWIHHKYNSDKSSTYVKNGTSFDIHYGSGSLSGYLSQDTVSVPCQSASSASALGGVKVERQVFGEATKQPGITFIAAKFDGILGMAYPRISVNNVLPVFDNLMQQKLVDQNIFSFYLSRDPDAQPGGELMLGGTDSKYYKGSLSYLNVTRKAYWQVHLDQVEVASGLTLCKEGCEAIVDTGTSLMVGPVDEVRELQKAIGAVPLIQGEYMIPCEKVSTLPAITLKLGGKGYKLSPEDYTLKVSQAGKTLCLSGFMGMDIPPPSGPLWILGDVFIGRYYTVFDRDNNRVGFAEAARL
T1 sequence (P07339 169-412 limits assumed): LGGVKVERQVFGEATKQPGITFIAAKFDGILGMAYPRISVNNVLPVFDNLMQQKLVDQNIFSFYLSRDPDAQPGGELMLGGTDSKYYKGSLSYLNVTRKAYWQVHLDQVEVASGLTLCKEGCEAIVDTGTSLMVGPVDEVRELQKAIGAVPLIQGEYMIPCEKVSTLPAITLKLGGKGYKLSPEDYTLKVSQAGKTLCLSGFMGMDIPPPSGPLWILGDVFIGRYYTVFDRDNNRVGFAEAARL
T1 sequence (P07339 65-162 limits assumed): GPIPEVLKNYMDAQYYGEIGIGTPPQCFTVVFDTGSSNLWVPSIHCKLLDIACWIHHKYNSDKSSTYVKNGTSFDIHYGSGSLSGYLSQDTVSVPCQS

O=C(CCn1c(=O)oc2ccccc21)N[C@@H](Cc1ccccc1)[C@@H](O)CN(CCc1ccc2c(c1)OCO2)C(=O)CCN1C(=O)c2ccccc2C1=O [EHA]
inhibition at 0.1 µM (human liver cathepsin D; [1]): ≥ 50% | inhibition at 0.33 µM (human liver cathepsin D; [2]): ≥ 50% | Ki (cathepsin D; [3]): 131 ± 12 nM

O=C(CCc1ccc2c(c1)OCO2)N[C@@H](Cc1ccccc1)[C@@H](O)CN(CCc1ccc2c(c1)OCO2)C(=O)CCN1C(=O)c2ccccc2C1=O [EHI]
inhibition at 0.1 µM (human liver cathepsin D; [1]): ≥ 50% | inhibition at 0.33 µM (human liver cathepsin D; [2]): ≥ 50%

O=C(CCN1C(=O)c2ccccc2C1=O)N[C@@H](Cc1ccccc1)[C@@H](O)CN(CCc1ccc(Cl)cc1Cl)C(=O)COc1c(Cl)cc(Cl)cc1Cl [FAH]
inhibition at 0.33 µM (human liver cathepsin D; [2]): ≥ 50%

COc1ccc(C(=O)N[C@@H](Cc2ccccc2)[C@@H](O)CN(CCc2ccc(Cl)cc2Cl)C(=O)CCN2C(=O)c3ccccc3C2=O)c(Cl)c1OC [FHJ]
inhibition at 0.33 µM (human liver cathepsin D; [2]): ≥ 50%

O=C(COc1cc(Cl)c(Cl)cc1Cl)N[C@@H](Cc1ccccc1)[C@@H](O)CN(CCc1ccc2c(c1)OCO2)C(=O)CCN1C(=O)c2ccccc2C1=O [EHD]
inhibition at 0.1 µM (human liver cathepsin D; [1]): ≥ 50% | inhibition at 0.33 µM (human liver cathepsin D; [2]): ≥ 50% | Ki (cathepsin D; [3]): 73 ± 9 nM

O=C(CCn1c(=O)oc2ccccc21)N[C@@H](Cc1ccccc1)[C@@H](O)CN(CCc1ccc(Cl)cc1Cl)C(=O)COc1c(Cl)cc(Cl)cc1Cl [FAA]
inhibition at 0.33 µM (human liver cathepsin D; [2]): ≥ 50%

O=C(COc1cccc(Cl)c1)N[C@@H](Cc1ccccc1)[C@@H](O)CN(CCc1ccc2c(c1)OCO2)C(=O)CCN1C(=O)c2ccccc2C1=O [EHR]
IC50 (cathepsin D; [4]): 20 ± 2 nM | Ki (cathepsin D; [5]): 15 nM

COc1cc(Br)c(C(=O)N[C@@H](Cc2ccc(-c3ccccc3)cc2)C(O)CN(CCc2ccc(Cl)cc2Cl)C(=O)CCN2C(=O)c3ccccc3C2=O)cc1OC (stereo partly drawn) [Obcf]
Ki (cathepsin D; [6]): 2.6 ± 0.2 nM

COc1cc(Br)c(C(=O)N[C@@H](Cc2ccc3ccccc3c2)[C@@H](O)CN(CCc2ccc(Cl)cc2Cl)C(=O)CCN2C(=O)c3ccccc3C2=O)cc1OC [Gbcf]
Ki (cathepsin D; [6]): 2.6 ± 0.2 nM

O=C(CCN1C(=O)c2ccccc2C1=O)N[C@@H](Cc1ccccc1)[C@@H](O)CN(CCc1ccc2c(c1)OCO2)C(=O)CCN1C(=O)c2ccccc2C1=O [EHH]
inhibition at 0.33 µM (human liver cathepsin D; [2]): ≥ 50%

O=C(N[C@@H](Cc1ccccc1)[C@@H](O)CN(CCc1ccc2c(c1)OCO2)C(=O)/C=C/c1cc2c(cc1Br)OCO2)c1ccc([N+](=O)[O-])cc1Cl [EEF]
inhibition at 0.33 µM (human liver cathepsin D; [2]): ≥ 50%

O=C(COc1ccc(Cl)c(Cl)c1)N[C@@H](Cc1ccccc1)[C@@H](O)CN(CCc1ccc2c(c1)OCO2)C(=O)CCN1C(=O)c2ccccc2C1=O [EHO]
IC50 (cathepsin D; [4]): 19 ± 2 nM | Ki (cathepsin D; [5]): 15 nM

O=C(CCN1C(=O)c2ccccc2C1=O)N[C@@H](Cc1ccccc1)[C@@H](O)CN(CCc1ccc2c(c1)OCO2)C(=O)CCc1ccc(Cl)c(Cl)c1 [EFH]
inhibition at 0.33 µM (human liver cathepsin D; [2]): ≥ 50%

COc1ccc(C(=O)N[C@@H](Cc2ccccc2)[C@@H](O)CN(CCc2ccc3c(c2)OCO3)C(=O)CCc2ccc(Cl)c(Cl)c2)c(Cl)c1OC [EFJ]
inhibition at 0.33 µM (human liver cathepsin D; [2]): ≥ 50%

O=C(N[C@@H](Cc1ccccc1)[C@@H](O)CN(CCc1ccc2c(c1)OCO2)C(=O)CCN1C(=O)c2ccccc2C1=O)c1ccc([N+](=O)[O-])cc1Cl [EHF]
inhibition at 0.33 µM (human liver cathepsin D): ≥ 50%

O=C(CCn1c(=O)oc2ccccc21)N[C@@H](Cc1ccccc1)[C@@H](O)CN(CCc1ccc(Cl)cc1Cl)C(=O)CCc1ccc(Cl)c(Cl)c1 [FFA]
inhibition at 0.33 µM (human liver cathepsin D; [2]): ≥ 50%

COc1cc(Br)c(C(=O)N[C@@H](Cc2cccc(Oc3ccccc3)c2)[C@@H](O)CN(CCc2ccc(Cl)cc2Cl)C(=O)CCN2C(=O)c3ccccc3C2=O)cc1OC [Kbcf]
Ki (cathepsin D; [6]): 1.9 ± 0.2 nM

O=C(/C=C/c1c(Cl)cccc1Cl)N[C@@H](Cc1ccccc1)[C@@H](O)CN(CCc1ccc2c(c1)OCO2)C(=O)CCN1C(=O)c2ccccc2C1=O [EHB]
inhibition at 0.33 µM (human liver cathepsin D; [2]): ≥ 50%

COc1cc(Br)c(C(=O)N[C@@H](Cc2ccc(Br)cc2)[C@@H](O)CN(CCc2ccc(Cl)cc2Cl)C(=O)CCN2C(=O)c3ccccc3C2=O)cc1OC [Qbcf]
Ki (cathepsin D; [6]): 6.7 ± 0.7 nM

COc1ccc(C(=O)N[C@@H](Cc2ccccc2)[C@@H](O)CN(CCc2ccc3c(c2)OCO3)C(=O)CCN2C(=O)c3ccccc3C2=O)c(Cl)c1OC [EHJ]
inhibition at 0.1 µM (human liver cathepsin D; [1]): ≥ 50% | inhibition at 0.33 µM (human liver cathepsin D; [2]): ≥ 50% | Ki (cathepsin D; [3]): 111 ± 8 nM

O=C(CCc1ccc2c(c1)OCO2)N[C@@H](Cc1ccccc1)[C@@H](O)CN(CCc1ccc2c(c1)OCO2)C(=O)CCc1ccc(Cl)c(Cl)c1 [EFI]
inhibition at 0.33 µM (human liver cathepsin D; [2]): ≥ 50%

O=C(COc1ccc(Cl)c(Cl)c1)N[C@@H](Cc1ccccc1)[C@@H](O)CN(CCc1ccc(Cl)cc1Cl)C(=O)CCN1C(=O)c2ccccc2C1=O [FHO]
IC50 (cathepsin D; [4]): 18 ± 2 nM | Ki (cathepsin D; [5]): 14 nM

O=C(CCN1C(=O)c2ccccc2C1=O)N[C@@H](Cc1ccccc1)[C@@H](O)CN(CCc1ccc(Cl)cc1Cl)C(=O)CCc1ccc(Cl)c(Cl)c1 [FFH]
inhibition at 0.33 µM (human liver cathepsin D; [2]): ≥ 50%

COc1ccc(C(=O)N[C@@H](Cc2ccccc2)[C@@H](O)CN(CCc2ccc3c(c2)OCO3)C(=O)/C=C/c2c(Cl)cccc2Cl)c(Cl)c1OC [EGJ]
inhibition at 0.33 µM (human liver cathepsin D; [2]): ≥ 50%

O=C(COc1ccc(Cl)cc1Cl)N[C@@H](Cc1ccccc1)[C@@H](O)CN(CCc1ccc2c(c1)OCO2)C(=O)CCN1C(=O)c2ccccc2C1=O [EHM]
IC50 (cathepsin D; [4]): 14 ± 2 nM | Ki (cathepsin D; [5]): 9 nM

O=C(CCn1c(=O)oc2ccccc21)N[C@@H](Cc1ccccc1)[C@@H](O)CN(CCc1ccc2c(c1)OCO2)C(=O)COc1c(Cl)cc(Cl)cc1Cl [EAA]
inhibition at 0.1 µM (human liver cathepsin D; [1]): ≥ 50% | inhibition at 0.33 µM (human liver cathepsin D; [2]): ≥ 50%

Cc1ccc(CCN(C[C@H](O)[C@H](Cc2ccccc2)NC(=O)COc2cc(Cl)c(Cl)cc2Cl)C(=O)CCN2C(=O)c3ccccc3C2=O)cc1 [UHD]
IC50 (cathepsin D; [4]): 229 ± 44 nM | Ki (cathepsin D; [5]): 224 nM

O=C(CCn1c(=O)oc2ccccc21)N[C@@H](Cc1ccccc1)[C@@H](O)CN(CCc1ccc2c(c1)OCO2)C(=O)CCc1ccc(Cl)c(Cl)c1 [EFA]
inhibition at 0.1 µM (human liver cathepsin D; [1]): ≥ 50% | inhibition at 0.33 µM (human liver cathepsin D; [2]): ≥ 50% | Ki (cathepsin D; [3]): 171 ± 25 nM

COc1ccc(C(=O)N[C@@H](Cc2ccccc2)[C@@H](O)CN(CCc2ccc3c(c2)OCO3)C(=O)COc2c(Cl)cc(Cl)cc2Cl)c(Cl)c1OC [EAJ]
inhibition at 0.33 µM (human liver cathepsin D; [2]): ≥ 50%

O=C(CCn1c(=O)oc2ccccc21)N[C@@H](Cc1ccccc1)[C@@H](O)CN(CCc1ccc(Cl)cc1Cl)C(=O)CCN1C(=O)c2ccccc2C1=O [FHA]
inhibition at 0.1 µM (human liver cathepsin D; [1]): ≥ 50% | inhibition at 0.33 µM (human liver cathepsin D; [2]): ≥ 50% | Ki (cathepsin D; [3]): 231 ± 31 nM

O=C(N[C@@H](Cc1ccccc1)[C@@H](O)CN(CCc1ccc(Cl)cc1Cl)C(=O)CCN1C(=O)c2ccccc2C1=O)c1ccc([N+](=O)[O-])cc1Cl [FHF]
inhibition at 0.33 µM (human liver cathepsin D; [2]): ≥ 50%

COc1cc(Br)c(C(=O)N[C@@H](Cc2ccccc2)[C@@H](O)CN(CCc2ccc3c(c2)OCO3)C(=O)CCN2C(=O)c3ccccc3C2=O)cc1OC [EHS]
IC50 (cathepsin D; [4]): 64 ± 6 nM | Ki (cathepsin D; [5]): 59 nM

O=C(COc1cc(Cl)c(Cl)cc1Cl)N[C@@H](Cc1ccccc1)[C@@H](O)CN(CCc1ccc2c(c1)OCO2)C(=O)CCc1ccc(Cl)c(Cl)c1 [EFD]
inhibition at 0.33 µM (human liver cathepsin D; [2]): ≥ 50%
